PubChem BioAssay AID248 (DTP/NCI, 2004)
Several values for one entry are separate records, joined by “and”; a condition that tells them apart may be missing. Equal entries are not always repeated. Toxic doses and inconclusive results are not listed. Cut-off read from the data, not from the text of the source: active = T/C of 150% or more; inactive = T/C below 125%. Square brackets hold non-standard residues; d marks the D form. Peptide text beside a SMILES is read from it. * marks the point of attachment. ξ: configuration not given here. Cbz = O=C(OCc1ccccc1)*; ξL = CC(C)CC(N)C(=O)O

System: L1210 leukemia ip in BDF1 mice, survival T/C
Assay: NCI In Vivo Anticancer Drug Screen. Data for tumor model L1210 Leukemia (intraperitoneal) in B6D2F1 (BDF1) mice
Details: endpoint: mean survival time, higher = longer survival
Summary of the method: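 Value reflects the ratio of survival in compound-treated mice to survival in vehicle-treated controls, with both groups carrying the same transplanted tumor.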

[1] = dose: 50.0 mg/kg/injection, schedule: Q01DX009 (ip), vehicle: saline with Tween-80
[2] = dose: 50.0 mg/kg/injection, schedule: Q04DX003 (ip), vehicle: saline with Tween-80
[3] = dose: 100.0 mg/kg/injection, schedule: Q01DX001 (ip), vehicle: saline with Tween-80
[4] = dose: 100.0 mg/kg/injection, schedule: Q01DX009 (ip), vehicle: saline with Tween-80
[5] = dose: 100.0 mg/kg/injection, schedule: Q04DX003 (ip), vehicle: saline with Tween-80
[6] = dose: 200.0 mg/kg/injection, schedule: Q01DX001 (ip), vehicle: saline with Tween-80
[7] = dose: 200.0 mg/kg/injection, schedule: Q01DX009 (ip), vehicle: saline with Tween-80
[8] = dose: 200.0 mg/kg/injection, schedule: Q04DX003 (ip), vehicle: saline with Tween-80
[9] = dose: 100.0 mg/kg/injection, schedule: Q01DX001 (ip), vehicle: saline
[10] = dose: 200.0 mg/kg/injection, schedule: Q01DX001 (ip), vehicle: saline
[11] = dose: 400.0 mg/kg/injection, schedule: Q01DX001 (ip), vehicle: saline
[12] = dose: 100.0 mg/kg/injection, schedule: Q04DX003 (ip), vehicle: Klucel (hydroxypropylcellulose) (HPC)
[13] = dose: 200.0 mg/kg/injection, schedule: Q04DX003 (ip), vehicle: Klucel (hydroxypropylcellulose) (HPC)
[14] = dose: 400.0 mg/kg/injection, schedule: Q04DX003 (ip), vehicle: Klucel (hydroxypropylcellulose) (HPC)
[15] = dose: 100.0 mg/kg/injection, schedule: Q04DX002 (ip), vehicle: saline
[16] = dose: 200.0 mg/kg/injection, schedule: Q04DX002 (ip), vehicle: saline
[17] = dose: 400.0 mg/kg/injection, schedule: Q04DX002 (ip), vehicle: saline
[18] = dose: 100.0 mg/kg/injection, schedule: Q01DX009 (ip), vehicle: Klucel (hydroxypropylcellulose) (HPC)
[19] = dose: 200.0 mg/kg/injection, schedule: Q01DX009 (ip), vehicle: Klucel (hydroxypropylcellulose) (HPC)
[20] = dose: 400.0 mg/kg/injection, schedule: Q01DX009 (ip), vehicle: Klucel (hydroxypropylcellulose) (HPC)
[21] = dose: 100.0 mg/kg/injection, schedule: Q04DX002 (ip), vehicle: Klucel (hydroxypropylcellulose) (HPC)
[22] = dose: 200.0 mg/kg/injection, schedule: Q04DX002 (ip), vehicle: Klucel (hydroxypropylcellulose) (HPC)
[23] = dose: 400.0 mg/kg/injection, schedule: Q04DX002 (ip), vehicle: Klucel (hydroxypropylcellulose) (HPC)
[24] = dose: 400.0 mg/kg/injection, schedule: Q04DX003 (ip), vehicle: saline with Tween-80

Measured: T/C

CC(C)COC(CN)C(Cl)(Cl)Cl (stereo unspecified)
inactive: dose: 50.0 mg/kg/injection, schedule: Q01DX001 (ip), vehicle: saline with Tween-80 104 % of control | [1] 94 % of control and 110 % of control | [2] 100 % of control | [3] 103 % of control | [4] 97 % of control and 92 % of control | dose: 100.0 mg/kg/injection, schedule: Q04DX002 (ip), vehicle: saline with Tween-80 103 % of control and 104 % of control | [5] 95 % of control | [6] 97 % of control | [7] 93 % of control and 99 % of control | dose: 200.0 mg/kg/injection, schedule: Q04DX002 (ip), vehicle: saline with Tween-80 95 % of control and 101 % of control | [8] 92 % of control

O=C(OC(C(=O)O)C(OC(=O)c1ccccc1)C(=O)O)c1ccccc1 (stereo unspecified) (tested in a mixture with another compound)
inactive: dose: 15.0 mg/kg/injection, schedule: Q01DX001 (ip), vehicle: carboxymethylcellulose (CMC) 102 % of control | dose: 100.0 mg/kg/injection, schedule: Q01DX001 (ip), vehicle: other 109 % of control | dose: 200.0 mg/kg/injection, schedule: Q01DX001 (ip), vehicle: other 102 % of control | dose: 400.0 mg/kg/injection, schedule: Q01DX001 (ip), vehicle: other 109 % of control

CCOP(=O)(O)Cc1c(Cl)c(Cl)c(CP(=O)(O)OCC)c(Cl)c1Cl
inactive: [9] 110 % of control | [10] 104 % of control | [11] 107 % of control

COc1ccc(C(C)=O)cc1CCCO
inactive: [9] 95 % of control | [10] 91 % of control | [11] 97 % of control

CC(C)=CCNC(=O)NS(=O)(=O)c1ccc(Cl)cc1
inactive: [12] 103 % of control | [13] 103 % of control | [14] 100 % of control

COC(=O)C(CC(C)C)NC(=O)CNC(=O)CNC(=O)OCc1ccccc1 (stereo not drawn) (Cbz-Gly-Gly-[ξL]-OMe)
inactive: [12] 105 % of control | [13] 96 % of control | [14] 96 % of control

C=C(C)C1CCC2(C=O)CCC3(C)C(CCC4C5(C)CCC(O)C(C)(C)C5CCC43C)C12 (stereo unspecified)
inactive: dose: 18.75 mg/kg/injection, schedule: Q01DX009 (ip), vehicle: Klucel (hydroxypropylcellulose) (HPC) 100 % of control | dose: 37.5 mg/kg/injection, schedule: Q01DX009 (ip), vehicle: Klucel (hydroxypropylcellulose) (HPC) 93 % of control | dose: 75.0 mg/kg/injection, schedule: Q01DX009 (ip), vehicle: Klucel (hydroxypropylcellulose) (HPC) 89 % of control

C=CC(=O)N(CCN1CCOCC1)C(C)C
inactive: [15] 94 % of control | [16] 97 % of control | [17] 94 % of control

CCCC(C)C(=O)OCP(=O)(COC(=O)C(C)CCC)COC(=O)C(C)CCC (stereo unspecified)
inactive: [3] 97 % of control | [6] 89 % of control

COc1cc(NS(C)(=O)=O)ccc1NS(C)(=O)=O
inactive: [18] 112 % of control | [12] 108 % of control | [19] 108 % of control | [13] 94 % of control | [20] 103 % of control | [14] 100 % of control

Cc1ccc([N+](=O)[O-])cc1NC(=O)Oc1ccc(Cl)cc1Cl
inactive: [5] 104 % of control | [8] 100 % of control

Cc1c(Br)c(=O)n(-c2ccccc2)n1C
inactive: dose: 50.0 mg/kg/injection, schedule: Q01DX009 (ip), vehicle: Klucel (hydroxypropylcellulose) (HPC) 94 % of control | [18] 98 % of control | [12] 101 % of control | [19] 100 % of control | [13] 100 % of control

COC(=O)/C=C(/Oc1cccc([N+](=O)[O-])c1)C(=O)OC
inactive: dose: 75.0 mg/kg/injection, schedule: Q04DX003 (ip), vehicle: saline 105 % of control | dose: 150.0 mg/kg/injection, schedule: Q04DX003 (ip), vehicle: saline 96 % of control | dose: 300.0 mg/kg/injection, schedule: Q04DX003 (ip), vehicle: saline 98 % of control

O=C(O)c1ccc2c(c1)C(Br)(Br)C2(Br)Br
inactive: [4] 98 % of control | [7] 101 % of control | dose: 400.0 mg/kg/injection, schedule: Q01DX009 (ip), vehicle: saline with Tween-80 103 % of control

CCN(CC)CCCOC(=O)/C=C/c1c(C)[nH]c(=O)[nH]c1=O
inactive: dose: 6.25 mg/kg/injection, schedule: Q01DX009 (ip), vehicle: saline 106 % of control | dose: 12.5 mg/kg/injection, schedule: Q01DX009 (ip), vehicle: saline 97 % of control | dose: 12.5 mg/kg/injection, schedule: Q04DX003 (ip), vehicle: saline 102 % of control | dose: 25.0 mg/kg/injection, schedule: Q01DX009 (ip), vehicle: saline 96 % of control | dose: 25.0 mg/kg/injection, schedule: Q04DX003 (ip), vehicle: saline 103 % of control | dose: 50.0 mg/kg/injection, schedule: Q01DX009 (ip), vehicle: saline 103 % of control | dose: 50.0 mg/kg/injection, schedule: Q04DX003 (ip), vehicle: saline 116 % of control

CN(C)c1ccc(N=C(C#N)C#N)cc1
inactive: dose: 75.0 mg/kg/injection, schedule: Q01DX001 (ip), vehicle: other 89 % of control | dose: 150.0 mg/kg/injection, schedule: Q01DX001 (ip), vehicle: other 95 % of control

Cc1cc(C)cc(-n2cccc2C(=O)O)c1
inactive: [21] 89 % of control | [22] 86 % of control | [23] 96 % of control

CC(=O)c1cccc(NC(=O)CCCCCCCCC(=O)Nc2cccc(C(C)=O)c2)c1
inactive: [18] 96 % of control | [19] 91 % of control | [20] 94 % of control

Nc1ccnc(Cl)c1N
inactive: [1] 111 % of control | [2] 97 % of control | [4] 111 % of control | [5] 101 % of control | [7] 109 % of control | [8] 95 % of control

NC(COC(c1ccccc1)(c1ccccc1)c1ccccc1)C(=O)O (stereo unspecified)
inactive: dose: 25.0 mg/kg/injection, schedule: Q01DX009 (ip), vehicle: other 100 % of control | dose: 200.0 mg/kg/injection, schedule: Q01DX009 (ip), vehicle: other 98 % of control

CC(=O)/C=C/c1ccc([N+](=O)[O-])cc1
inactive: dose: 100.0 mg/kg/injection, schedule: Q04DX003 (ip), vehicle: saline sonified 95 % of control | dose: 200.0 mg/kg/injection, schedule: Q04DX003 (ip), vehicle: saline sonified 89 % of control | dose: 400.0 mg/kg/injection, schedule: Q04DX003 (ip), vehicle: saline sonified 92 % of control

COc1ccc(Br)cc1CCCO
inactive: [5] 94 % of control | [8] 92 % of control | [24] 95 % of control

CCOC(=O)CCC(C(=O)OCC)N(CC(=O)OCC)C(=O)c1ccccc1 (stereo unspecified)
inactive: [5] 102 % of control | [8] 98 % of control | [24] 96 % of control

Cn1c(=N)ccn(C2OC(CO)C(O)C2O)c1=O (stereo unspecified) (tested in a mixture with another compound)
inactive: [9] 106 % of control | [10] 106 % of control | [11] 107 % of control

CC(=O)CC=NCCN=CCC(C)=O
inactive: [3] 98 % of control | [6] 103 % of control | dose: 400.0 mg/kg/injection, schedule: Q01DX001 (ip), vehicle: saline with Tween-80 95 % of control

O=C1CCN(CCN2CCC(=O)N(Cc3ccccc3)C2=S)C(=S)N1Cc1ccccc1
inactive: [21] 100 % of control | [22] 107 % of control | [23] 96 % of control

O=C(CCCCl)N1CCCC1
inactive: [15] 98 % of control | [16] 91 % of control | [17] 94 % of control

Cc1ccc(C2OC23CC(C)(C)c2ccccc2C3=O)cc1 (stereo unspecified)
inactive: [5] 93 % of control | [8] 96 % of control | [24] 93 % of control

COc1cc(/C=C/C=C/C(=O)N2CCCCC2)ccc1O
inactive: [4] 88 % of control | [7] 92 % of control

N\C([S-])=N/N=C\C(=N/N=C(\N)[S-])C(O)C(O)C(O)CO.[Rh+2] (stereo unspecified)
inactive: dose: 100.0 mg/kg/injection, schedule: Q04DX003 (ip), vehicle: other 106 % of control | dose: 200.0 mg/kg/injection, schedule: Q04DX003 (ip), vehicle: other 93 % of control | dose: 400.0 mg/kg/injection, schedule: Q04DX003 (ip), vehicle: other 98 % of control
